Measured values as given in ChEMBL document CHEMBL1201862, “PubChem BioAssay data set” (2004).
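Where inhibition never reached the appropriate level, the endpoint shown equals the highest concentration tested. Otherwise, values were interpolated linearly from a five-concentration, 48-hour dose response in 96-well plates. GI50 is the concentration that inhibits growth by half.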 Calls of active or inactive are those of the source. Rule as the data show it: active = GI50 up to about 1.1 µM and inactive = higher. Square brackets hold non-standard residues; d marks the D form. Peptide text beside a SMILES is read from it.

What was measured:
Test in all cases: NCI-60 cell line screen, 48 h
[1] = test system: SNB-19
[2] = test system: A549
[3] = test system: SNB-78
[4] = test system: UACC-257
[5] = test system: HCT-15
[6] = test system: A498
[7] = test system: HCC 2998
[8] = test system: SNB-75
[9] = test system: RPMI-8226
[10] = test system: SK-OV-3
[11] = test system: HL-60
[12] = test system: SK-MEL-2
[13] = test system: EKVX
[14] = test system: DMS-114
[15] = test system: SF-539
[16] = test system: SF-295
[17] = test system: COLO 205
[18] = test system: U-251
[19] = test system: LOX IMVI
[20] = test system: SW-620
[21] = test system: NCI-H226
[22] = test system: SN12C
[23] = test system: IGROV-1
[24] = test system: UO-31
[25] = test system: SF-268
[26] = test system: OVCAR-8
[27] = test system: NCI-H23
[28] = test system: UACC-62
[29] = test system: OVCAR-3
[30] = test system: KM-20L2
[31] = test system: SK-MEL-5
[32] = test system: DMS-273
[33] = test system: NCI-H460
[34] = test system: HT-29
[35] = test system: HOP-62
[36] = test system: SK-MEL-28
[37] = test system: CCRF-CEM
[38] = test system: NCI/ADR-RES
[39] = test system: HOP-18
[40] = test system: OVCAR-4
[41] = test system: K562
[42] = test system: M19-MEL
[43] = test system: MCF7
[44] = test system: XF498
[45] = test system: DLD-1
[46] = test system: NCI-H522
[47] = test system: KM12
[48] = test system: OVCAR-5
[49] = test system: Malme-3M
[50] = test system: MOLT-4
[51] = test system: RXF 393
[52] = test system: HCT-116
[53] = test system: HOP-92

Measured: GI50

O=C(NC/C=C/CO)c1ccccc1
inactive: [1] > 100 µM | [2] > 100 µM | [3] > 100 µM | [4] > 100 µM | [6] > 100 µM | [7] > 100 µM | [8] 65.8 µM | [9] > 100 µM | [10] > 100 µM | [11] > 100 µM | [12] > 100 µM | [13] > 100 µM | [14] > 100 µM | [15] > 100 µM | [16] > 100 µM | [17] > 100 µM | [18] > 100 µM | [19] > 100 µM | [20] > 100 µM | [21] > 100 µM | [22] > 100 µM | [23] > 100 µM | [24] > 100 µM | [25] > 100 µM | [26] > 100 µM | [27] > 100 µM | [28] > 100 µM | [29] > 100 µM | [30] > 100 µM | [31] > 100 µM | [32] > 100 µM | [33] > 100 µM | [34] > 100 µM | [35] > 100 µM | [36] > 100 µM | [37] > 100 µM | [38] > 100 µM | [39] > 100 µM | [40] > 100 µM | [41] > 100 µM | [42] > 100 µM | [43] > 100 µM | [44] > 100 µM | [45] > 100 µM | [46] > 100 µM | [47] > 100 µM | [48] > 100 µM | [49] > 100 µM | [50] > 100 µM | [51] > 100 µM | [52] > 100 µM
> 100 µM: [5]

CC(C)C[C@H](NC(=O)[C@H](CC(C)C)NC(=O)[C@@H](Cc1c[nH]c2ccccc12)NC(=O)[C@H](Cc1ccccc1)NC(=O)[C@@H](Cc1c[nH]c2ccccc12)NC(=O)[C@H](CCC(N)=O)NC(=O)[C@@H](CCC(N)=O)NC(=O)[C@@H]1CCCN1C(=O)[C@@H](CCCCN)NC(=O)[C@H]1CCCN1C(=O)[C@H](N)CCCN=C(N)N)C(N)=O (H-[dR][dP][dK]P[dQ]Q[dW]F[dW]LL-NH2)
> 100 µM: [5]
inactive: [1] 44.9 µM | [2] > 100 µM | [3] > 100 µM | [4] > 48.3 µM | [6] 32.3 µM | [7] > 100 µM | [8] > 100 µM | [9] > 100 µM | [10] > 100 µM | [11] > 100 µM | [12] > 100 µM | [13] > 100 µM | [14] > 100 µM | [15] > 61.4 µM | [16] 63.5 µM | [17] > 100 µM | [18] > 55 µM | [19] > 100 µM | [20] > 100 µM | [21] > 100 µM | [22] > 100 µM | [23] > 100 µM | [24] > 100 µM | [25] > 100 µM | [26] > 100 µM | [27] > 100 µM | [28] > 100 µM | [29] > 86.3 µM | [30] > 100 µM | [31] > 100 µM | [32] > 100 µM | [33] 64.7 µM | [34] > 100 µM | [35] > 100 µM | [36] > 100 µM | [37] > 100 µM | [38] > 100 µM | [39] > 100 µM | [53] > 100 µM | [40] > 100 µM | [41] > 100 µM | [42] > 100 µM | [43] > 100 µM | [44] > 100 µM | [45] > 100 µM | [46] > 100 µM | [47] > 100 µM | [48] > 100 µM | [49] > 31.6 µM | [50] > 27.4 µM | [51] > 100 µM | [52] > 100 µM
